Laboratory results reported in PMC12543283, “TastepepAI: An artificial intelligence platform for taste peptide de novo design” (PLOS Computational Biology, 2025).
Ends that are not written are not given here.

Experiments:
[1] = system: human bronchial epithelial cells (BEAS-2B)
[2] = system: human umbilical vein endothelial cells (HUVEC)
[3] = system: human pancreatic ductal epithelial cells (HPNE)
Method: The cytotoxicity of 73 synthetic peptides was evaluated using four human cell lines: human pancreatic ductal epithelial cells (HPNE), human embryonic kidney cells (HEK293T), human umbilical vein endothelial cells (HUVEC), and human bronchial epithelial cells (BEAS-2B). When cell density reached 70% confluence, the complete culture medium was replaced with serum-free maintenance medium, and peptides were added at a final concentration of 100 μM for 36 h. Control groups received only serum-free maintenance medium without peptides. Cell proliferation was assessed using the CCK-8 assay kit (Solarbio, CA1210) according to the manufacturer’s instructions.

[4] = system: human embryonic kidney cells (HEK293T)
[5] = Electronic tongue analysis (Taste-Sensing System SA 402B); set-up: unit not given here; conditions: reference solution 30 mM KCl + 0.3 mM tartaric acid as baseline, first measurement excluded; for Umami: sensor AAE; for Umami / Bitter / Sweet: detection threshold 0, room temperature; for Umami / Bitter / Sour / Salty: four replicates; for Sour: detection threshold -13, room temperature; for Salty: detection threshold -6, room temperature; for Sweet: measured five times
Outline: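 Room-temperature electronic-tongue readings with five taste probes, calibrated against a reference of 30 mM KCl and 0.3 mM tartaric acid. Samples at 0.1 mg/mL and 1.0 mg/mL were measured four times, sweetness five times, and the first run was dropped. Detection cut-offs were sour −13, salty −6, others 0.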

Substance	Average cell viability, BEAS-2B [1]	Cell viability, BEAS-2B, Data1 [1]	Cell viability, BEAS-2B, Data2 [1]	Cell viability, BEAS-2B, Data3 [1]	Average cell viability, HUVEC [2]	Cell viability, HUVEC, Data1 [2]	Cell viability, HUVEC, Data2 [2]	Cell viability, HUVEC, Data3 [2]	Average cell viability, HPNE [3]	Cell viability, HPNE, Data1 [3]	Cell viability, HPNE, Data2 [3]	Cell viability, HPNE, Data3 [3]	Average cell viability, HEK293T [4]	Cell viability, HEK293T, Data1 [4]	Cell viability, HEK293T, Data2 [4]	Cell viability, HEK293T, Data3 [4]	Umami ([5]; peptide 0.1 mg/mL)	Umami ([5]; peptide 1 mg/mL)	Bitter ([5]; sensor C00, peptide 0.1 mg/mL)	Bitter ([5]; sensor C00, peptide 1 mg/mL)	further results
APEELDA [TaPep36]	102.92	111.17	103.39	94.22	101.78	93.96	95.80	115.59	113.58	114.11	111.61	115.01	103.41	103.44	102.11	104.67	0.55	-6.54	7.85	3.11	Sour ([5]; sensor CA0, peptide 0.1 mg/mL): -0.61; Sour ([5]; sensor CA0, peptide 1 mg/mL): 17.06; Salty ([5]; sensor CT0, peptide 0.1 mg/mL): -18.92; Salty ([5]; sensor CT0, peptide 1 mg/mL): 13.68; Sweet ([5]; sensor GL1, peptide 0.1 mg/mL): 5.62; Sweet ([5]; sensor GL1, peptide 1 mg/mL): -8.13
YDGTPLN [TaPep11]	102.96	102.59	99.80	106.48	112.96	111.12	113.36	114.40	100.63	98.34	113.51	90.05	102.37	107.03	95.68	104.38	2.75	-2.91	7.10	3.24	Sour ([5]; sensor CA0, peptide 0.1 mg/mL): -5.95; Sour ([5]; sensor CA0, peptide 1 mg/mL): 9.08; Salty ([5]; sensor CT0, peptide 0.1 mg/mL): -21.79; Salty ([5]; sensor CT0, peptide 1 mg/mL): 6.18; Sweet ([5]; sensor GL1, peptide 0.1 mg/mL): 9.69; Sweet ([5]; sensor GL1, peptide 1 mg/mL): -5.23
TPRKQ [TaPep37]	100.23	95.41	110.47	94.82	107.80	111.04	111.52	100.82	94.98	108.02	84.26	92.65	100.47	100.50	96.44	104.48	1.93	-5.88	7.34	3.28	Sour ([5]; sensor CA0, peptide 0.1 mg/mL): -4.03; Sour ([5]; sensor CA0, peptide 1 mg/mL): 12.49; Salty ([5]; sensor CT0, peptide 0.1 mg/mL): -13.82; Salty ([5]; sensor CT0, peptide 1 mg/mL): 15.18; Sweet ([5]; sensor GL1, peptide 0.1 mg/mL): 4.01; Sweet ([5]; sensor GL1, peptide 1 mg/mL): -5.26
KADGNR [TaPep4]	96.81	99.00	95.11	96.31	105.16	113.12	102.98	99.39	97.84	95.76	97.39	100.36	102.74	102.11	102.49	103.63	1.35	-5.17	7.74	1.90	Sour ([5]; sensor CA0, peptide 0.1 mg/mL): -2.92; Sour ([5]; sensor CA0, peptide 1 mg/mL): 13.79; Salty ([5]; sensor CT0, peptide 0.1 mg/mL): -16.43; Salty ([5]; sensor CT0, peptide 1 mg/mL): 17.52; Sweet ([5]; sensor GL1, peptide 0.1 mg/mL): 4.21; Sweet ([5]; sensor GL1, peptide 1 mg/mL): -5.50
AQKQE [TaPep53]	99.50	92.92	110.37	95.21	99.25	90.21	95.96	111.60	100.53	111.51	101.33	88.75	96.06	101.55	93.50	93.12	2.86	-3.47	7.88	2.74	Sour ([5]; sensor CA0, peptide 0.1 mg/mL): -6.36; Sour ([5]; sensor CA0, peptide 1 mg/mL): 8.92; Salty ([5]; sensor CT0, peptide 0.1 mg/mL): -19.95; Salty ([5]; sensor CT0, peptide 1 mg/mL): 13.59; Sweet ([5]; sensor GL1, peptide 0.1 mg/mL): 9.02; Sweet ([5]; sensor GL1, peptide 1 mg/mL): -4.92
FEGPE [TaPep62]	106.55	112.26	103.59	103.79	108.97	109.69	105.38	111.84	104.06	108.32	92.35	111.51	100.16	97.95	102.21	100.32	1.43	-4.77	7.43	3.70	Sour ([5]; sensor CA0, peptide 0.1 mg/mL): -2.87; Sour ([5]; sensor CA0, peptide 1 mg/mL): 11.86; Salty ([5]; sensor CT0, peptide 0.1 mg/mL): -20.91; Salty ([5]; sensor CT0, peptide 1 mg/mL): 8.50; Sweet ([5]; sensor GL1, peptide 0.1 mg/mL): 6.38; Sweet ([5]; sensor GL1, peptide 1 mg/mL): -4.13
DAAEK [TaPep2]	107.18	116.05	111.86	93.62	95.40	97.15	96.19	92.84	105.52	116.01	111.51	89.05	92.18	95.02	84.13	97.38	1.21	-4.05	7.88	2.74	Sour ([5]; sensor CA0, peptide 0.1 mg/mL): -2.30; Sour ([5]; sensor CA0, peptide 1 mg/mL): 12.60; Salty ([5]; sensor CT0, peptide 0.1 mg/mL): -19.03; Salty ([5]; sensor CT0, peptide 1 mg/mL): 13.52; Sweet ([5]; sensor GL1, peptide 0.1 mg/mL): 6.09; Sweet ([5]; sensor GL1, peptide 1 mg/mL): -5.50
PTELESD [TaPep41]	110.80	117.85	114.36	100.20	103.09	108.17	102.98	98.11	95.94	86.16	113.91	87.75	106.18	94.54	110.54	113.47	1.88	-3.94	7.34	3.91	Sour ([5]; sensor CA0, peptide 0.1 mg/mL): -3.84; Sour ([5]; sensor CA0, peptide 1 mg/mL): 9.16; Salty ([5]; sensor CT0, peptide 0.1 mg/mL): -20.79; Salty ([5]; sensor CT0, peptide 1 mg/mL): 2.54; Sweet ([5]; sensor GL1, peptide 0.1 mg/mL): 8.41; Sweet ([5]; sensor GL1, peptide 1 mg/mL): -8.94
LNDVE [TaPep66]	98.04	103.39	89.73	101.00	96.70	88.85	100.59	100.67	110.62	96.14	118.00	117.70	101.96	96.81	102.97	106.09	1.83	-3.37	7.14	4.03	Sour ([5]; sensor CA0, peptide 0.1 mg/mL): -3.77; Sour ([5]; sensor CA0, peptide 1 mg/mL): 8.49; Salty ([5]; sensor CT0, peptide 0.1 mg/mL): -21.50; Salty ([5]; sensor CT0, peptide 1 mg/mL): 4.47; Sweet ([5]; sensor GL1, peptide 0.1 mg/mL): 6.93; Sweet ([5]; sensor GL1, peptide 1 mg/mL): -3.10
